{
  "source": "patent US6692443B2",
  "about": "“Systems and methods for investigating blood flow” (New Health Sciences, Inc., priority 2000, dated 2004)",
  "tested_on": "cerebral vessels",
  "procedure": "A person with a history of hypertension experiences a first stroke in the left middle cerebral artery resulting in deficits in the right hand, leg, and some deficits in motor speech. These are the symptoms upon presentation in the neurological clinic. Transcranial Doppler analysis of all cerebral vessels is performed in addition to analyzing the common carotid artery and the internal carotid artery.\nThe physician considers prescription of Plavix together with a calcium channel blocker. Transcranial Doppler analysis was performed at monthly intervals. […] The physician subsequently administers a higher dose. Again, transcranial Doppler analysis is performed on all cerebral vessels.",
  "data": [
    {"smiles": "COC(=O)[C@H](c1ccccc1Cl)N1CCc2sccc2C1", "note": "[Plavix]", "values": [
      {"measurement": "changes in the individual cerebral vessels (transcranial Doppler)", "setting": "person after first stroke, Plavix +/− calcium channel blocker, initial dose, analysis at monthly intervals", "value": "no effect on the cerebral vessels"},
      {"measurement": "auto-regulation curve (transcranial Doppler)", "setting": "same patient, higher dose", "value": "left-shifts toward normal"},
      {"measurement": "pulsatility index of the vessel studied (transcranial Doppler)", "setting": "same patient, higher dose", "value": "decreases"}
    ]}
  ]
}
